# Data as given in PMC10748408 (Frontiers in Oncology, 2023).
# Marks after values point to notes of the source that are not given here.
# Columns and labels:
# Type in all cases: in vivo, BALB/c mice
# [1] = test system: tumor-bearing mice; experiment: Hematological parameters of tumor-bearing mice treated with ART; conditions: 7 days
# [2] = test system: tumor-bearing mice; experiment: Mean survival time of tumor-bearing mice; conditions: for MST: tumor-bearing mice, observed 90 days
# Method: MST was calculated using the equation: MST (days) = (day of first mortality + day of last mortality)/2. The increase in survivability between treated and untreated groups was estimated by ILS% = [(MST of treated set/MST of untreated set) -1] X 100 ([26]).
# [3] = test system: ALDH+ cells (CSCs) of mammary tumors; experiment: ALDH+ population estimation (Aldefluor) in tumors; conditions: untreated tumor 24.1%
# Method: Mammary fat pad and tumor tissues (1 × 10^6 cells/ml) were resuspended in aldefluor™ assay buffer containing ALDH substrate and incubated for 45 minutes at 37°C. As a control, cells were resuspended in buffer containing aldefluor substrate in the presence of diethylaminobenzaldehyde (DEAB), a specific ALDH inhibitor. The fluorescent ALDH^+ cells were detected in the green fluorescence channel (520-540nm) in a flow cytometer (BD FACS Aria III). ALDH^+ and ALDH^- cells were eventually sorted using the BD Aria III Cell Sorter and sorted cells collected for further analysis (BD Biosciences, USA; [21]).
structure (smiles),measurement,setting,value
"C[C@@H]1CC[C@H]2[C@@H](C)C(=O)O[C@@H]3O[C@@]4(C)CC[C@@H]1[C@]32OO4 [ART, Artemisinin]",Differential Count % B (Basophils),[1]; ART 6.25 mg/kg body wt i.p.,0%
same,Differential Count % E (Eosinophils),[1]; ART 6.25 mg/kg body wt i.p.,0%
same,Differential Count % L (Lymphocyte),[1]; ART 6.25 mg/kg body wt i.p.,36± 2.5%
same,Differential Count % M (Monocytes),[1]; ART 6.25 mg/kg body wt i.p.,1%
same,Differential Count % N (Neutrophils),[1]; ART 6.25 mg/kg body wt i.p.,63± 1.4%
same,Hb,[1]; ART 6.25 mg/kg body wt i.p.,10.1 ± 0.42 g/dL
same,Total RBC,[1]; ART 6.25 mg/kg body wt i.p.,5.1± 0.1 10^6 cells/mm^3
same,Total WBC,[1]; ART 6.25 mg/kg body wt i.p.,16.8± 0.8** 10^3 cells/mm^3
same,Differential Count % B (Basophils),[1]; ART 12.5 mg/kg body wt i.p.,0%
same,Differential Count % E (Eosinophils),[1]; ART 12.5 mg/kg body wt i.p.,0%
same,Differential Count % L (Lymphocyte),[1]; ART 12.5 mg/kg body wt i.p.,51± 2.6 %
same,Differential Count % M (Monocytes),[1]; ART 12.5 mg/kg body wt i.p.,1%
same,Differential Count % N (Neutrophils),[1]; ART 12.5 mg/kg body wt i.p.,48± 2.6 %
same,Hb,[1]; ART 12.5 mg/kg body wt i.p.,13.7 ± 0.33 g/dL
same,Total RBC,[1]; ART 12.5 mg/kg body wt i.p.,6.3± 0.29^* 10^6 cells/mm^3
same,Total WBC,[1]; ART 12.5 mg/kg body wt i.p.,10.2± 1.16^*** 10^3 cells/mm^3
same,Differential Count % B (Basophils),[1]; ART 25 mg/kg body wt i.p.,0%
same,Differential Count % E (Eosinophils),[1]; ART 25 mg/kg body wt i.p.,0%
same,Differential Count % L (Lymphocyte),[1]; ART 25 mg/kg body wt i.p.,53± 2.1 %
same,Differential Count % M (Monocytes),[1]; ART 25 mg/kg body wt i.p.,1%
same,Differential Count % N (Neutrophils),[1]; ART 25 mg/kg body wt i.p.,46± 1.3 %
same,Hb,[1]; ART 25 mg/kg body wt i.p.,14.2 ± 0.21 g/dL
same,Total RBC,[1]; ART 25 mg/kg body wt i.p.,6.7± 0.14^* 10^6 cells/mm^3
same,Total WBC,[1]; ART 25 mg/kg body wt i.p.,9.3± 1.8^*** 10^3 cells/mm^3
same,Differential Count % B (Basophils),[1]; ART 50 mg/kg body wt i.p.,0%
same,Differential Count % E (Eosinophils),[1]; ART 50 mg/kg body wt i.p.,0%
same,Differential Count % L (Lymphocyte),[1]; ART 50 mg/kg body wt i.p.,57± 1.2 %
same,Differential Count % M (Monocytes),[1]; ART 50 mg/kg body wt i.p.,2%
same,Differential Count % N (Neutrophils),[1]; ART 50 mg/kg body wt i.p.,41± 1.5 %
same,Hb,[1]; ART 50 mg/kg body wt i.p.,14.6 ± 0.61 g/dL
same,Total RBC,[1]; ART 50 mg/kg body wt i.p.,7.6± 0.67^* 10^6 cells/mm^3
same,Total WBC,[1]; ART 50 mg/kg body wt i.p.,9.1± 1.23^*** 10^3 cells/mm^3
same,mean survival of tumor-bearing mice treated with ART,"[2]; Kaplan-Meier plot, untreated succumbed within 50 days",~90 days
same,MST,[2]; ART 6.25 mg/kg body wt,48.2 ± 17.3 days
same,MST,[2]; ART 12.5 mg/kg body wt,61.3 ± 8.9 days
same,MST,[2]; ART 25 mg/kg body wt,75.4 ± 7.1 days
same,MST,[2]; ART 50 mg/kg body wt,88.3 ± 8.9 days
same,percentage of ALDH+ cells,[3]; T+ 25: ART 25 mg/kg,8.1%
same,percentage of ALDH+ cells,[3]; T+ 50: ART 50 mg/kg,6.2%
